Source: patent US7943598B2, “Use of organic glucosamine salts” (Bioiberica, S.A., priority 2004, dated 2011)

Test system: aggrecan degradation induced with IL-1α
Experiment: Inhibition of aggrecan degradation (aggrecanolysis) induced with IL-1α in LTC chondrocyte culture, Western Blot with anti-G1 antibody
Assay type: cell-based, rat
Conditions: for inhibition of aggrecanolysis induced by IL-1α vs. the control: LTC rat chondrosarcoma chondrocyte culture, 10 ng/mL IL-1α, 4 days, control = culture with only IL-1α
Protocol: The study of the inhibition of aggrecan degradation was performed on a chondrocyte culture from a rat chondrosarcoma cell line. This cell line, called LTC, deposits an extracellular matrix similar to the cartilage's, expresses all the components of the aggrecanase system, generates the fragmentation of aggrecan by said enzymes, and responds to known aggrecanolysis inhibitors such as glucosamine hydrochloride. The assays were performed on chondrocyte cultures from a rat chondrosarcoma cell line called LTC. The LTC cells were kept in a monolayer culture in a Gibco DMEM medium (Dulbecco's Modification of Eagle's Medium) (containing 4.5 g/L of glucose) supplemented with sodium bicarbonate (3.7 g/L), glutamine (2 mM), ascorbic acid (50 mg/L), gentamicin (50 mg/L), and bovine fetal serum Hyalone (10%), at pH 7.4. The confluent LTC cell cultures were trypsinised and 40,000 cells per 0.5 mL of culture were seeded in 48-well plates. They were maintained for 5 days, during which time they deposited 15-30 μg of glycosaminoglycans (GAG) in each well. The medium was separated, the cell membranes were washed by adding 5×1 mL of a catabolic medium {DMEM+4.5 g/L glucose supplemented with sodium bicarbonate (3.7 g/L), glutamine (2 mM), and 10 ng/mL of IL-1α (interleukin-1α) at pH 7.4}. Subsequently, the cultures were kept in 200 μL of this medium, supplemented or not with glucosamine hydrogen malate, for 4 days, without changing the medium, at 37° C. In order to verify the effect of glucosamine hydrogen malate on aggrecan degradation, a Western Blot was performed. For the Western Blot, 20 μL of 50 mM tris-acetate at pH 7.3 were added to each well. The cultures (medium+cell membrane) were deglycosylated with 50 mU of chondroitinase ABC at 37° C. for 4 hours. Subsequently, the samples in each well were recovered and centrifuged at 1,460 g for 10 minutes. 25 μL-fractions of the supernatant were separated by electrophoresis (gel gradient 8-12% SDS PAGE) and analysed by means of a Western Blot using anti-G1 antibody. The antiserum was used at a 1:5,000 dilution and the peroxidase-conjugated goat anti-(rabbit IgG) was detected by means of the Amersham ECL Kit. The exposure time ranged between 5 seconds and 5 minutes in order to obtain quantifiable images. The Western Blots were scanned and the bands were quantified by means of the SCION image analysis software. In relation to the described procedure, see: J. D. Sandy et al., Biochem. J. 335, 59-66 (1998).

Compound	inhibition of aggrecanolysis induced by IL-1α vs. the control (1 mM) [%]	inhibition of aggrecanolysis induced by IL-1α vs. the control (10 mM) [%]	effectiveness in inhibiting aggrecanolysis compared with glucosamine hydrochloride (FIG. 1) (10 mM, LTC culture with IL-1α)
Cl.N[C@H]1C(O)O[C@H](CO)[C@@H](O)[C@@H]1O (some centres unmarked) [glucosamine hydrochloride, reference compound]	83±4.9	53±5.8	
N[C@H]1C(O)O[C@H](CO)[C@@H](O)[C@@H]1O.O=C(O)CC(O)C(=O)O (some centres unmarked) [glucosamine hydrogen malate, Glucosamine Hydrogen Malate]	95±17.5	32±3.7	significantly more effective than glucosamine hydrochloride
